Source: ChEMBL document CHEMBL1134706, “Novel cytotoxic 7-iminomethyl and 7-aminomethyl derivatives of camptothecin” (Bioorg Med Chem Lett, 2001)

Assays:
NCI-H460 = assay: In vitro cytotoxicity against H460 a human non-small lung carcinoma cell line after 1 hour drug exposure; assay type: functional, cell-based; conditions: NCI-H460, 1 h
[1] = Partition coefficient (logP); assay type: physicochemical; conditions: octanol/water
[2] = In vivo antitumor activity in NSCLC H460 xenografted sc in athymic nude mice expressed as percent tumor volume inhibition (TVI) at a dose of 15 mg/kg perorally for q4dx4; assay type: functional, Mus musculus; conditions: route oral
[3] = In vivo antitumor activity in NSCLC H460 xenografted sc in athymic nude mice expressed as percent Body weight loss (BWL) at a dose of 15 mg/kg orally for q4dx4; assay type: functional, Mus musculus; conditions: route oral
[4] = In vivo antitumor activity in NSCLC H460 xenografted sc in athymic nude mice expressed as percent Body weight loss (BWL) at a dose of 2 mg/kg orally for q4dx4; assay type: functional, Mus musculus; conditions: route oral
[5] = In vivo antitumor activity in NSCLC H460 xenografted sc in athymic nude mice expressed as percent Tumor volume inhibition (TVI) at a dose of 18 mg/kg perorally for q4dx4; assay type: functional, Mus musculus; conditions: route oral
[6] = In vivo antitumor activity in NSCLC H460 xenografted sc in athymic nude mice expressed as percent tumor volume inhibition (TVI) at a dose of 2 mg/kg perorally for q4dx4; assay type: functional, Mus musculus; conditions: route oral
[7] = In vivo antitumor activity in NSCLC H460 xenografted sc in athymic nude mice expressed as percent Body weight loss (BWL) at a dose of 18 mg/kg orally for q4dx4; assay type: functional, Mus musculus; conditions: route oral
[8] = In vivo antitumor activity in NSCLC H460 xenografted sc in athymic nude mice expressed as percent Tumor volume inhibition (TVI) at a dose of 6 mg/kg perorally for q4dx4; assay type: functional, Mus musculus; conditions: route oral
[9] = In vivo antitumor activity in NSCLC H460 xenografted sc in athymic nude mice expressed as percent Body weight loss (BWL) at a dose of 6 mg/kg orally for q4dx4; assay type: functional, Mus musculus; conditions: route oral

SMILES | IC50 (NCI-H460) [nM] | logP [1] | other results
CC[C@@]1(O)C(=O)OCc2c1cc1n(c2=O)Cc2c-1nc1ccccc1c2CNCCN(C)C | 450 | 0.89 | –
CC[C@@]1(O)C(=O)OCc2c1cc1n(c2=O)Cc2c-1nc1ccccc1c2/C=N/Cc1ccccc1 | 280 | 3.26 | –
CC[C@@]1(O)C(=O)OCc2c1cc1n(c2=O)Cc2c-1nc1ccccc1c2/C=N/CCN(C)C | 120 | 1.53 | –
CC[C@@]1(O)C(=O)OCc2c1cc1n(c2=O)Cc2c-1nc1ccccc1c2CN=C(N)N | 12600 | -0.79 | –
CC[C@@]1(O)C(=O)OCc2c1cc1n(c2=O)Cc2c-1nc1ccccc1c2CNC1CCCCC1 | 350 | 2.44 | –
CC[C@@]1(O)C(=O)OCc2c1cc1n(c2=O)Cc2c-1nc1ccccc1c2CN | 2370 | 0.37 | –
CC[C@@]1(O)C(=O)OCc2c1cc1n(c2=O)Cc2c-1nc1ccccc1c2/C=N/N=C(N)N | 39300 | 0.67 | –
CC[C@@]1(O)C(=O)OCc2c1cc1n(c2=O)Cc2c-1nc1ccccc1c2/C=N/C1CCCCC1 | 370 | 3.08 | –
CC[C@@]1(O)C(=O)OCc2c1cc1n(c2=O)Cc2cc3c(CN(C)C)c(O)ccc3nc2-1 [TOPOTECAN] | 1380 | – | TVI [2]: 95%; BWL [3]: 12%
CC[C@@]1(O)C(=O)OCc2c1cc1n(c2=O)Cc2c-1nc1ccccc1c2/C=N/c1ccc([N+](=O)[O-])cc1 | 280 | 2.34 | –
CC[C@@]1(O)C(=O)OCc2c1cc1n(c2=O)Cc2c-1nc1ccccc1c2/C=N/CCCCO | 360 | 1.57 | –
CC[C@@]1(O)C(=O)OCc2c1cc1n(c2=O)Cc2c-1nc1ccccc1c2CNc1ccccc1 | 310 | 2.56 | –
CC[C@@]1(O)C(=O)OCc2c1cc1n(c2=O)Cc2c-1nc1ccccc1c2/C=N/c1ccccc1 | 130 | 3.19 | BWL [4]: 2%; TVI [5]: 89%; TVI [6]: 33%; BWL [7]: 1%; TVI [8]: 51%; BWL [9]: 7%
